Assays:
RAW macrophages [1] = test: Cell viability (CellTiter-Glo), RAW macrophages; format: cell-based, mouse; conditions: CellTiter-Glo
HEPG2 = test: Viability assay (CellTiter-Glo), HEPG2; format: cell-based, human; conditions: for Cell viability (%) HEPG2 120 μM: CellTiter-Glo
Experimental: (§1) The screen identified several compounds that reduced NO in activated microglia and macrophages. The tested compounds included achiral and chiral imidazodiazepines and benzodiazepines. In general, microglia were more sensitive to compound treatment with more pronounced reduction of NO than macrophages. […] Cell viability assays with HEK293 (kidney) and HepG2 (liver) cells were conducted in a concentration dependent manner. A limited number of compounds, such as GL-III-63, GL-III-76A, and GL-III-77, were toxic at 120 μM.
(§2) Viability assay. Human liver hepatocellular carcinoma (HEPG2) and human embryonic kidney 293T (HEK293T) cell lines were purchased (ATCC) and cultured in 75 cm^2 flasks (CellStar). Cells were grown in DMEM/High Glucose (Hyclone, #SH3024301) media to which non-essential amino acids (Hyclone, #SH30238.01), 10 mM HEPES (Hyclone, #SH302237.01), 5×10^6 units of penicillin and streptomycin (Hyclone, #SV30010), and 10% of heat inactivated fetal bovine serum (Gibco, #10082147) were added. Cells were harvested using 0.05% Trypsin (Hyclone, #SH3023601), washed with PBS, and dispensed into sterile white, optical bottom 384-well plates (NUNC, #142762). After three hours, small molecule DMSO solutions were transferred with a Tecan Freedom EVO liquid handling system equipped with a 100 nL pin tool (V&P Scientific). The controls were 3-dibutylamino-1-(4-hexyl-phenyl)-propan-1-one (25 mM in DMSO, positive control) and DMSO (negative control). The cells were incubated for 48 hours followed by the addition of CellTiter-Glo™, a luminescence-based cell viability assay (Promega, Madison, WI). All luminescence readings were performed on a Tecan Infinite M1000 plate reader. The assay was carried out in quadruplet with two independent runs. The data were analyzed by nonlinear regression.

Mouse microglia [2] = test: Cell viability (CellTiter-Glo), mouse microglia; format: cell-based; conditions: 50 μM, CellTiter-Glo
Experimental: Next, a library of GABAAR ligands was investigated to identify compounds that reduce the production of NO as a marker of anti-inflammatory activity. […] NO was quantified with a Greiss assay. Cell viability was determined with CellTiter-Glo.
Nitric oxide production (Griess assay) and viability assay (CellTiter-Glo). 80 μL of mouse microglia culture (1×10^6 cells/mL) was plated into sterile 384 well plates representing non-activated wells. The remaining culture was activated with 50 ng/ml LPS (Invivogen, NC9836) and 150 U/mL IFNγ (R&D Systems, 485MI100) and distributed into the 384 well plates. […] Assay plates were incubated for approximately 24 hours (unless otherwise noted) at 37° C., centrifuged, and 40 μL of supernatant transferred to a new plate for analysis using the Griess Assay (Promega, Madison, WI). Absorbance at 530 nm was measured using a TECAN Infinite M1000 plate reader. The remaining 40 μL containing cells was analyzed for toxicity by the CellTiter-Glo Assay (Promega, Madison, WI). Luminescence was read using a TECAN Infinite M1000 plate reader.

Mouse microglia [3] = test: NO production (Griess assay), LPS/IFNγ-activated mouse microglia; format: cell-based; conditions: for Inhibition of NO production (%) Mouse microglia 10 μM: 24 hours, 1 μM GABA, LPS/IFNγ
HEK293 = test: Viability assay (CellTiter-Glo), HEK293; format: cell-based, human; conditions: for Cell viability (%) HEK293 120 μM: CellTiter-Glo
Experimental: as §1, §2

RAW macrophages [4] = test: NO production (Griess assay), LPS/IFNγ-activated RAW264.7 macrophages; format: cell-based, mouse; conditions: for Inhibition of NO production (%) RAW macrophages 10 μM: 24 hours, 1 μM GABA, LPS/IFNγ

SMILES	Cell viability (%) RAW macrophages 50 μM (RAW macrophages [1])	Cell viability (%) HEPG2 120 μM (HEPG2)	Cell viability (%) Mouse microglia 50 μM (Mouse microglia [2])	Inhibition of NO production (%) Mouse microglia 10 μM (Mouse microglia [3])	Cell viability (%) HEK293 120 μM (HEK293)	Inhibition of NO production (%) RAW macrophages 10 μM (RAW macrophages [4])	toxicity at 120 μM (in words) (HEPG2; HepG2, 120 μM)	toxicity at 120 μM (in words) (HEK293; HEK293, 120 μM)	inhibition at 10 µM (Mouse microglia [3]; Mus musculus, Microglia, 24 h)	inhibition at 50 µM (Mouse microglia [3]; Mus musculus, Microglia, 24 h)	inhibition at 10 µM (RAW macrophages [4]; Mus musculus, Macrophage, 24 h)	inhibition at 50 µM (RAW macrophages [4]; Mus musculus, Macrophage, 24 h)
C#Cc1ccc2c(c1)C(c1ccccn1)=N[C@H](C)c1c(-c3nc(CC)no3)ncn1-2 [GL-III-97]	98 ± 3%	100 ± 12%	100 ± 4%	11 ± 6%	54 ± 9%	6 ± 1%						
C#Cc1ccc2c(c1)C(c1ccccc1F)=NCc1c(C(=O)O)ncn1-2 [GL-II-79]	100 ± 3%	100 ± 7%	84 ± 5%	44 ± 6%	91 ± 13%	0 ± 3%						
C#Cc1ccc2c(c1)C(c1ccccc1F)=NC(C)c1c(C(=S)NC)ncn1-2 (stereo not shown) [GL-III-84]	100 ± 12%	100 ± 10%	96 ± 8%	32 ± 4%	64 ± 5%	10 ± 5%						
C#Cc1ccc2c(c1)C(c1ccccc1F)=NC(C)C(=O)N2C (stereo not shown) [GL-III-25]	100 ± 8%	100 ± 5%	98 ± 4%	25 ± 10%	93 ± 4%	38 ± 9%						
CCOC(=O)c1ncn2c1[C@@H](C)N=C(c1ccccc1F)c1cc(Cl)ccc1-2 [GL-III-53]	97 ± 7%	94 ± 10%	72 ± 7%	85 ± 14%	47 ± 10%	3 ± 2%						
C#Cc1ccc2c(c1)C(c1ccccc1)=NCC(=O)N2 [GL-III-59]	100 ± 3%	100 ± 2%	96 ± 4%	43 ± 7%	100 ± 4%	8 ± 1%						
C#Cc1ccc2c(c1)C(c1ccccc1F)=NC(C)C(=O)N2C (stereo not shown) [GL-III-24]	100 ± 12%	91 ± 12%	98 ± 5%	67 ± 12%	78 ± 6%	68 ± 8%						
C#Cc1ccc2c(c1)C(c1ccccn1)=NC(C)C(=O)N2C (stereo not shown) [GL-II-61]	100 ± 8%	82 ± 3%	91 ± 8%	28 ± 2%	83 ± 10%	10 ± 4%						
CCOC(=O)c1ncn2c1CN=C(c1ccccn1)c1cc(C3CC3)ccc1-2 [GL-IV-05]	100 ± 6%	100 ± 10%	88 ± 12%	59 ± 4%	47 ± 3%	14 ± 3%						
CC1N=C(c2ccccc2F)c2cc(C#C[Si](C)(C)C)ccc2-n2cnc(-c3cnco3)c21 (stereo not shown) [GL-III-77]	85 ± 3%	0 ± 4%	98 ± 4%	31 ± 2%	0 ± 2%	29 ± 2%	toxic	toxic				
C#Cc1ccc2c(c1)C(c1ccccc1F)=NC(C)c1c(C(=S)N(C)C)ncn1-2 (stereo not shown) [GL-III-85]	100 ± 10%	100 ± 11%	84 ± 12%	34 ± 8%	70 ± 12%	0 ± 2%						
CC1N=C(c2ccccc2F)c2cc(Cl)ccc2NC1=O (stereo not shown) [GL-III-52]	97 ± 8%	81 ± 9%	85 ± 8%	57 ± 11%	73 ± 8%	2 ± 2%						
CC1N=C(c2ccccc2F)c2cc(C#C[Si](C)(C)C)ccc2-n2cnc(-c3cnco3)c21 (stereo not shown) [GL-III-72]	77 ± 4%	100 ± 3%	100 ± 10%	21 ± 7%	64 ± 8%	57 ± 7%						
C#Cc1ccc2c(c1)C(c1ccccc1F)=NCc1c(C(=O)OCCCO)ncn1-2 [GL-II-80]	100 ± 2%	100 ± 9%	85 ± 1%	38 ± 8%	76 ± 8%	5 ± 3%						
C#Cc1ccc2c(c1)C(c1ccccc1F)=N[C@H](C)c1c(-c3nc(CC)no3)ncn1-2 [MP-IV-005, (R)-3-ethyl-5-(8-ethynyl-6-(2-fluorophenyl)-4-methyl-4H-benzo[f]imidazo[1,5-a][1,4]diazepin-3-yl)-1,2,4-oxadiazole]	86 ± 14%	98 ± 8%	86 ± 13%		68 ± 14%				45 ± 3%	89 ± 17%	5 ± 3%	59 ± 9%
CC1N=C(c2ccccn2)c2cc(Br)ccc2NC1=O (stereo not shown) [GL-II-05]	100 ± 11%	92 ± 5%	88 ± 8%	12 ± 5%	94 ± 3%	0 ± 1%						
C#Cc1ccc2c(c1)C(c1ccccn1)=N[C@H](C)C(=O)N2 [GL-III-27]	100 ± 4%	77 ± 7%	86 ± 8%	29 ± 8%	91 ± 2%	1 ± 3%						
CCc1noc(-c2ncn3c2[C@@H](C)N=C(c2ccccc2F)c2cc(Br)ccc2-3)n1 [GL-III-98, (R)-5-(8-Bromo-6-(2-fluorophenyl)-4-methyl-4H-benzo[f]imidazo[1,5-a][1,4]diazepin-3-yl)-3-ethyl-1,2,4-oxadiazole]	100 ± 11%	56 ± 5%	83 ± 6%		42 ± 8%				75 ± 9%		1 ± 4%	
O=C(O)c1ncn2c1CN=C(c1ccccc1)c1cc(Br)ccc1-2 [GL-I-50]	100 ± 9%	100 ± 2%	88 ± 9%	33 ± 6%	97 ± 12%	0 ± 1%						

— patent US20240279232A1, “USE OF SUBSTITUTED 5-(4-METHYL-6-PHENYL-4H-BENZO[F]IMIDAZO[1,5-A][1,4] DIAZEPIN-3-YL)-1,2,4-O[…] THE TREATMENT OF INFLAMMATORY CONDITIONS” (priority 2021, published 2024)
